Experimental data from US5198568A, “Compounds useful in enzymatic resolution systems and their preparation” (priority 1991, dated 1993).
Where a name gives a salt, the structure may show the parent alone.

How the values were obtained:
Assay type in all cases: biochemical
[1] = system: protease Prozyme 6 from Aspergillus oryzae (Amano, Enzyme F); experiment: Asymmetric hydrolysis in an extractive membrane reactor, enzyme not associated with the membrane, Enzyme F
From the text: Hexane was recirculated through the lumen or bores of the fibers in the module. The aqueous solution in the shell contained the enzyme and ester. While the cellulose membrane is water-wet, the membrane rejects the macromolecular enzyme (molecular weight 18,000). Therefore, the enzyme resides solely in the aqueous ester solution. As the ibuprofen acid was formed, it was extracted into the hexane phase, thereby reducing the effect of product (ibuprofen acid) inhibition on the activity of the enzyme.
The aqueous phase used to extract the ibuprofen acid from hexane in this module contained 0.1M sodium carbonate buffer at pH 9.5. The pH was maintained at this value by the addition of 8.22M sodium hydroxide as required.
In this Example, the aqueous stream in the extractive membrane reactor module consisted of a solution of the sulfomethyl ester of ibuprofen (1), which solution was prepared by adding 32.51 gm of the sodium salt of the ester (at 75% chemical purity) to 1000 ml of 0.1M sodium phosphate buffer (pH 7.0). The reaction was started by adding 2 gm of the protease (F) from the fungus Aspergillus oryzae (from Amano Enzyme Corporation, Prozyme 6, 60,000 units per gm of solid). […]
The optical rotation of the recovered product was measured by polarimetry; the experimentally determined value for [α]D was -56.7° (measured at c=0.815 in ethanol), thereby indicating the R isomer of ibuprofen. The sample was also analyzed by chiral HPLC using a Bakerbond DNBPG (covalent) column (4.6×250 mm), with 96.9% hexane:3.0% 2-propanol:0.1% acetonitrile as the mobile phase at 2 ml/min after derivatization with naphthalene amine. […] The optical purity or enantiomeric excess of this R ibuprofen sample as determined by this chiral HPLC procedure was 99.3% (i.e., enantiomeric excess of R ibuprofen).
The aqueous phase at pH 7.0 (as recovered from the extractive membrane reactor) was mixed with 280 gm of sodium chloride to salt out the remaining unconverted ester. […] The optical rotation (as measured by polarimetry) was [α]D =+57.4° (c=1.29 in ethanol), indicating the S isomer of ibuprofen. […]

[2] = system: Protease XXIII from Aspergillus oryzae (Sigma, Enzyme A); experiment: Homogeneous aqueous enzymatic resolution (ester hydrolysis), Enzyme A; conditions: acid product; 100 mg enzyme A, pH 7.0, 20-22 C, 20 hours
Experimental: No further purification was performed.

[3] = system: protease Prozyme 6 from Aspergillus oryzae (Amano, Enzyme F); experiment: Asymmetric hydrolysis in an extractive dispersion reactor, Enzyme F; conditions: 100 mg Prozyme 6, 3.38 gm ester in 100 ml buffer pH 7.0 plus 100 ml hexane, room temperature, 3.5 hours
Experimental: In this Example, the hexane was dispersed in the reaction vessel to extract the inhibitory ibuprofen acid as it is formed. The reaction was started by adding 100 mg of the protease from the fungus Aspergillus oryzae (from Amano Enzyme Corporation, Prozyme 6, 60,000 units per mg of solid).
After 3.5 hours at room temperature with vigorous stirring, the solution was acidified to pH 2 and extracted with 2 volumes of hexane. The aqueous phase was saved for subsequent workup. The hexane phase was dried over MgSO4 and evaporated to dryness. The resolved ibuprofen product so recovered consisted of 490 mg of white powder, indicating 24% conversion. The optical rotation was -0.568° (c=1.015 in ethanol), indicating the R isomer of ibuprofen.

[4] = biological target: T1, Protease XXVII, Nagarse (Sigma, Enzyme D) (Bacillus amyloliquefaciens, UniProt P00782); experiment: Homogeneous aqueous enzymatic resolution (ester hydrolysis), Enzyme D; conditions: 100 mg enzyme D, 10 mmol ester in 100 ml 0.2 M phosphate buffer pH 7.0, 20-22 C, 20 hours
T1 construct: purchased Sigma
T1 sequence (P00782 108-382): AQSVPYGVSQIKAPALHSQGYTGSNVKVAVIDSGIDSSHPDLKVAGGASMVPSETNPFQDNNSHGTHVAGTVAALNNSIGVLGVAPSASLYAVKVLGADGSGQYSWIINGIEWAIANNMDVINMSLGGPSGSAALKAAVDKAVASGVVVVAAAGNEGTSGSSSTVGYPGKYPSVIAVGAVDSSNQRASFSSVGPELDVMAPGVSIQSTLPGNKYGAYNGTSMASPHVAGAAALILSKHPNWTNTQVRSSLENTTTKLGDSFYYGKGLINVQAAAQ

[5] = system: lipase from Candida cylindracea (Meito Sangyo, Lipase OF); experiment: Activity of the carrier lipase against the ester
[6] = system: protease Prozyme 6 from Aspergillus oryzae (Amano, Enzyme F); experiment: Homogeneous aqueous enzymatic resolution (ester hydrolysis), Enzyme F
Experimental: (§1) The enzymatic reaction mixtures were capped and briefly shaken until all the substrate had dissolved, and the enzyme had completely dissolved or dispersed. […] Evaporation of the ether left a white solid. Rotations were measured at c=1 in CHCl3.
as §1
The reaction was started by adding 100 mg of the protease (F) from the fungus Aspergillus oryzae (from Amano Enzyme Corporation, Prozyme 6, 60,000 units per mg of solid).
After 20 hours at room temperature, the solution was acidified to pH 2 and extracted with 3 volumes of diethyl ether. The aqueous phase was saved for subsequent workup. The ether phase was washed with two volumes of distilled water and then one volume of saturated sodium chloride, and then it was dried over MgSO4 and subsequently evaporated to dryness. The resolved ibuprofen product recovered was 930 mg of white powder, indicating 45% conversion of racemic ester to acid. The optical rotation was -0.580° (measured at c=1 in ethanol), indicating the R isomer of ibuprofen.
35 mg of protease Enzyme F, as the commercial preparation Prozyme 6, were added to the aqueous solution. The reaction flask was capped, and briefly shaken until all the enzyme had dissolved or dispersed. […] The resulting mixture was diluted with one volume of water and was extracted with diethyl ether (2 times 200 ml). The ether layers were combined and backwashed with water (2 times 200 ml), saturated NaCl solution (200 ml), and then dried over MgSO4.
In this control run, a 0.5M ester solution of (1) was prepared in 325 ml of 0.1M sodium phosphate buffer (pH 7.0). The reaction was started by adding 3 gm of the above enzyme (F). The pH was controlled at 7.0 with 8.22M sodium hydroxide. After 6.49 hours at 30 ° C., 6.63 ml of hydroxide were added, indicating 37.7% conversion. The reaction was allowed to continue overnight and, after 23.1 hours, a total of 7.2 ml of sodium hydroxide were added, indicating 40.9% conversion.

[7] = system: Protease XXIV, bacterial protease (Sigma, Enzyme J); experiment: pH-stat rate of hydrolysis of single enantiomers, Enzyme J; conditions: 50 mM single enantiomer, 50 mM buffer pH 7.6, enzyme J
Experimental: (§2) 15 ml of a solution containing one enantiomer of the ester at a concentration of 50 mM, and Na3 PO4 buffer at 50 mM and pH 7.6 was observed using a pH stat device. 0.1 ml of a 50 mg/ml solution of Enzyme J, made up from the commercially available preparation in 50 mM Na3 PO4 buffer at pH 7.6, were added. Rates of hydrolysis of both enantiomers of the ester compound were determined for the enzyme. The ratio of the rates of hydrolysis for the two enantiomers for the two enantiomers with respect to the enzyme indicate the stereospecificity of that enzyme's hydrolytic action on the racemic mixture of the ester. No evidence for the hydrolysis of the acetylthio ester portion of the substrate molecule was found.

[8] = biological target: T2, Protease VIII, Subtilopeptidase A (subtilisin Carlsberg) (Sigma, Enzyme B) (Bacillus licheniformis, UniProt P00780); experiment: pH-stat rate of hydrolysis of single enantiomers, Enzyme B; conditions: 50 mM single enantiomer, 50 mM buffer pH 7.6, enzyme B
T2 sequence (P00780 106-379): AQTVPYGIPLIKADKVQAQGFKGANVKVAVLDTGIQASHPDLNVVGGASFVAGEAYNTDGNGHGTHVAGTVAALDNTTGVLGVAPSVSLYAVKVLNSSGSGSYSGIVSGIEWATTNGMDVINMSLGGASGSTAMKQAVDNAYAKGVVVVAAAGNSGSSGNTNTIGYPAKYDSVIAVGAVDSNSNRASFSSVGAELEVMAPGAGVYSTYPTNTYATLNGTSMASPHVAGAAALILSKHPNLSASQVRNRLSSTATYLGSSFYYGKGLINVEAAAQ
Experimental: 15 ml of a solution containing one enantiomer of the ester at a concentration of 50 mM, and Na3 PO4 buffer at 50 mM and pH 7.6 wa observed using pH stat device 0.1 ml of a 50 mg/ml solution of enzyme B, made up from
as §2, with “the” for “15 ml of a solution containing one enantiomer of the ester at a concentration of 50 mM, and Na3 PO4 buffer at 50 mM and pH 7.6 was observed using a pH stat device. 0.1 ml of a 50 mg/ml solution of Enzyme J, made up from the”

[9] = system: Protease XXIII from Aspergillus oryzae (Sigma, Enzyme A); experiment: pH-stat rate of hydrolysis of single enantiomers, Enzyme A; conditions: 50 mM single enantiomer, 50 mM buffer pH 7.6, enzyme A
Experimental: 15 ml of a solution containing one enantiomer of the ester at a concentration of 50 mM, and Na3 PO4 buffer at 50 mM and pH 7.6 was observed using a pH stat device. 0.1 ml of a 50 mg/ml solution of enzyme A, made up from
Rates of hydrolysis of both enantiomers of the ester compound were
determined for the enzyme. The ratio of the rates of hydrolysis for the
two enantiomers for the two enantiomers with respect to the enzyme
indicate the stereospecificity of that enzyme's hydrolytic action on the […]

[10] = biological target: T1, Protease XXVII, Nagarse (Sigma, Enzyme D); experiment: pH-stat rate of hydrolysis of single enantiomers, Enzyme D; conditions: 50 mM single enantiomer, 50 mM buffer pH 7.6, enzyme D
Experimental: as §2, with “enzyme D,” for “Enzyme J,”, “thioacetyl” for “acetylthio”

[11] = system: Protease XIV from Streptomyces griseus (Sigma, Enzyme I); experiment: pH-stat rate of hydrolysis of single enantiomers, Enzyme I; conditions: 50 mM single enantiomer, 50 mM buffer pH 7.6, enzyme I
Experimental: as §2, with “solution of protease enzyme I, made up” for “solution of Enzyme J, made up”, “for the protease enzyme. The” for “for the enzyme. The”

[12] = chiral HPLC, after 50% conversion

Row | Structure (SMILES) | conversion of the racemic ester to ibuprofen acid ([1]; 2 gm Prozyme 6, 32.51 gm ester in 1000 ml 0.1M sodium phosphate pH 7.0, hexane extractant, room temperature, 6.3 hours) [%] | enantiomeric excess of R ibuprofen (acid product) [1, 12] [%] | enantiomeric excess of S ibuprofen (from unconverted ester hydrolyzed at pH 12) [1, 12] [%] | % e.e. [2] [%] | conversion [3] [%] | % CONVERSION [4] [%] | activity of the lipase against the ester [5] | conversion of racemic ester to acid ([6]; 100 mg Prozyme 6 (F), 3.22 gm ester in 100 ml 0.2M sodium phosphate pH 7.0, room temperature, 20 hours) [%] | conversion ([6]; 0.5M ester, 3 gm enzyme F, pH 7.0, 30 C, after 23.1 hours, 500000 µM) [%] | Rate of hydrolysis [7] [umols/hr/mg] | Rate of hydrolysis [8] [umols/hr/mg] | Rate of hydrolysis [9] [umols/hr/mg] | Rate of hydrolysis [10] [umols/hr/mg] | Rate of hydrolysis [11] [umols/hr/mg]
1 | CC(C)Cc1ccc(C(C)C(=O)OCS(=O)(=O)O)cc1 (racemic) [Compound 1, Sodium Salt of 4-Sulfomethyl Ester of 2-(4-Isobutylphenyl)propanoic Acid] | 50 | 99.3 | 98.9 | > 99 | 24 | 34.0 | inactive | 45 | 40.9 | – | – | – | – | –
2 | CC(=O)SC[C@@H](C)C(=O)OCS(=O)(=O)O [Compound 14, Potassium Salt of the Sulfomethyl Ester of D-(-)-S-3-Acetylthio-2-methylpropanoic Acid] | – | – | – | – | – | – | – | – | – | 61 | 65 | 5.3 | 27 | 63
3 | CC(=O)SC[C@H](C)C(=O)OCS(=O)(=O)O [Compound 15, Potassium Salt of the Sulfomethyl Ester of L-(+)-S-3-Acetylthio-2-methylpropanoic Acid] | – | – | – | – | – | – | – | – | – | 65 | 135 | 12 | 29 | 105
